Test results reported in patent publication US8637523B2, “Compounds for the reduction of beta-amyloid production” (Bristol-Myers Squibb Company, priority 2010, dated 2014).
pIC50: −log10 of the molar value. Several values for one entry are separate records, joined by “and”; a condition that tells them apart may be missing. Equal values may be shown once. Read-outs that look alike come from different tables or passages of the source.

How the values were obtained:
[1] = from CC(C)(C)OC(=O)N(CCOc1cc(N)ccc1C#N)CCc1nc(Cl)nc2c1CCC2c1ccc(F)cc1; cn_pd bond; 13-membered ring; Pd(OAc)2/Xantphos/Cs2CO3; 1,4-dioxane; 6.0 mM; 110.0 °C
Aβ42 = assay: Cellular assay for inhibition of Aβ1-42 production (H4 APP751 SWE clone 8.20); format: cell-based; details: H4 APP751 SWE clone 8.20 cells, 19 h incubation; read-out: Activity Rating (Aβ42 cellular IC50), class symbol
How it was run: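 Aβ42 read by time-resolved FRET using neoepitope antibody 565 (0.8 ng/well) paired with N-terminal 26D6 (75 ng/well), incubated overnight at 4 °C, then IC50 curve fitting. Cells: H4 APP751 Swedish clone 8.20, exposed to compound for 19 h at 37 °C.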

CC(C)(C)OC(=O)N1CCOc2cc(ccc2C#N)Nc2nc(c3c(n2)C(c2ccc(F)cc2)CC3)CC1 (stereo not shown)
ring closure, isolated yield [1]: 21.4%

CN1Cc2c(nc3nc2N(C)CC=CCOc2cc(ccc2C#N)N3)C(c2ccc(F)cc2)C1 (racemic)
ring closure, yield after HPLC (from C=CCOc1cc(Nc2nc3c(c(N(C)CC=C)n2)CN(C)CC3c2ccc(F)cc2)ccc1C#N, rcm bond, 13-membered ring, Hoveyda-Grubbs II, 1,2-dichloroethane, 3.0 mM, 90.0 °C): 4.95%

Clc1cn(-c2ccc3cc2OCCCNC2=NC(=N3)NC3=C2CCC3c2ccccc2)cn1 (stereo not shown)
ring closure, yield after HPLC (cn_pd bond, 12-membered ring, Pd(dba)3 (so in the source)/Xantphos/Cs2CO3, 1,4-dioxane, 30.7 mM, 110.0 °C): 2.83% and 1.88%

Cc1ncn(-c2ccc3cc2OCC(O)CCNc2nc(nc4c2CCC4c2ccc(F)cc2)N3)n1 (mixture of isomers)
ring closure, yield after HPLC (from Cc1ncn(-c2ccc(N)cc2OCC(O)CCNc2nc(Cl)nc3c2CCC3c2ccc(F)cc2)n1, cn_pd bond, 13-membered ring, Pd(OAc)2/Xantphos/Cs2CO3, dioxane, 100.0 mM, 100.0 °C): 24.4%

Clc1cn(-c2ccc3cc2OC/C=C/CCNc2nc(nc4c2CCC4c2ccccc2)N3)cn1 (stereo not shown)
ring closure, yield after HPLC (rcm bond, 14-membered ring, Hoveyda-Grubbs II, 1,2-dichloroethane, 0.975 mM, 100.0 °C): 27.7%

CN1CC=CCOc2cc(ccc2C#N)Nc2nc3c(c1n2)CCC3c1ccccc1 (stereo not shown) [Example 29A, (11Z)-7-cyano-14-methyl-18-phenyl-10,13,14,16,17,18-hexahydro-15,2-(azeno)-8,4-(metheno)cyclopenta[h][1,6,10,12]oxatriazacycloheptadecine]
pIC50 (Aβ42): > 8.00

Cc1ncn(-c2ccc3cc2OC/C=C/CNc2nc(nc4c2CCC4c2ccc(F)cc2F)N3)n1 (stereo not shown) [Example 52B, (11E)-18-(2,4-difluorophenyl)-7-(3-methyl-1H-1,2,4-triazol-1-yl)-10,13,14,16,17,18-hexahydro-15,2-(azeno)-8,4-(metheno)cyclopenta[h][1,6,10,12]oxatriazacycloheptadecine]
pIC50 (Aβ42): 7.00 to 8.00
